Reference: ChEMBL document CHEMBL3352037, “Antifungal terpenoids from Hyalis argentea var. latisquama” (2014)
≈ marks a conversion by molar mass, not a printed value. Calls of active or inactive are those of the source. The calls are words filed in the database; no cut-off is given here.

Experiments:
[1] = system: Candida albicans; test: Antifungal activity against Candida albicans ATCC 10231 assessed as microbial growth inhibition at 50 to 300 ug/mL after 48 hrs broth microdilution method; type: functional, organism-based
[2] = system: Cryptococcus neoformans; test: Antifungal activity against Cryptococcus neoformans ATCC 32264 assessed as microbial growth inhibition at 50 to 300 ug/mL after 48 hrs broth microdilution method; type: functional, organism-based
[3] = system: Candida albicans; test: Antifungal activity against Candida albicans ATCC 10231 by bioautography TLC plate assay based MTT method; type: functional, organism-based
[4] = system: Cryptococcus neoformans; test: Antifungal activity against Cryptococcus neoformans ATCC 32264 by bioautography TLC plate assay based MTT method; type: functional, organism-based
[5] = system: Candida albicans; test: Antifungal activity against Candida albicans ATCC 10231 assessed as microbial growth inhibition at 15.6 ug/mL after 48 hrs broth microdilution method; type: functional; conditions: ATCC 10231, 48 h, read-out: GI
[6] = system: Candida albicans; test: Antifungal activity against Candida albicans ATCC 10231 assessed as microbial growth inhibition at 62.5 ug/mL after 48 hrs broth microdilution method; type: functional; conditions: ATCC 10231, 48 h, read-out: GI
[7] = system: Candida albicans; test: Antifungal activity against Candida albicans ATCC 10231 assessed as microbial growth inhibition at 125 ug/mL after 48 hrs broth microdilution method; type: functional; conditions: ATCC 10231, 48 h, read-out: GI
[8] = system: Cryptococcus neoformans; test: Antifungal activity against Cryptococcus neoformans ATCC 32264 assessed as microbial growth inhibition at 15.6 ug/mL after 48 hrs broth microdilution method; type: functional; conditions: ATCC 32264, 48 h, read-out: GI
[9] = system: Cryptococcus neoformans; test: Antifungal activity against Cryptococcus neoformans ATCC 32264 assessed as microbial growth inhibition at 31.25 ug/mL after 48 hrs broth microdilution method; type: functional; conditions: ATCC 32264, 48 h, read-out: GI
[10] = system: Cryptococcus neoformans; test: Antifungal activity against Cryptococcus neoformans ATCC 32264 assessed as microbial growth inhibition at 62.5 ug/mL after 48 hrs broth microdilution method; type: functional; conditions: ATCC 32264, 48 h, read-out: GI
[11] = system: Cryptococcus neoformans; test: Antifungal activity against Cryptococcus neoformans ATCC 32264 assessed as microbial growth inhibition after 48 hrs broth microdilution method; type: functional
[12] = system: Candida albicans; test: Antifungal activity against Candida albicans ATCC 10231 assessed as microbial growth inhibition after 48 hrs broth microdilution method; type: functional, organism-based
[13] = system: Candida albicans; test: Antifungal activity against Candida albicans ATCC 10231 assessed as microbial growth inhibition at 250 ug/mL after 48 hrs broth microdilution method; type: functional, organism-based
[14] = system: Cryptococcus neoformans; test: Antifungal activity against Cryptococcus neoformans ATCC 32264 assessed as microbial growth inhibition at 250 ug/mL after 48 hrs broth microdilution method; type: functional, organism-based
[15] = system: Candida albicans; test: Antifungal activity against Candida albicans ATCC 10231 assessed as microbial growth inhibition at => 125 ug/mL after 48 hrs broth microdilution method; type: functional
[16] = system: Cryptococcus neoformans; test: Antifungal activity against Cryptococcus neoformans ATCC 32264 assessed as microbial growth inhibition at => 125 ug/mL after 48 hrs broth microdilution method; type: functional

## C=C1[C@H]2C[C@H]2[C@]2(C)C[C@@H]3OC(=O)C(CO)=C3C[C@@H]12
[1]
  growth inhibition (GI): inactive
[2]
  growth inhibition (GI): inactive

## C=C1[C@H]2C[C@H]2[C@]2(C)C=C3OC(=O)C(COC(C)=O)=C3C[C@@H]12
[3]
  growth inhibition (GI): Active
[4]
  growth inhibition (GI): Active
[5]
  inhibition of growth at 15.6 µg/mL: 50%
[6]
  inhibition of growth at 62.5 µg/mL: 80%
[7]
  inhibition of growth at 125 µg/mL: 100%
[8]
  inhibition of growth at 15.6 µg/mL: 50%
[9]
  inhibition of growth at 31.25 µg/mL: 80%
[10]
  inhibition of growth at 62.5 µg/mL: 100%

## C=C1[C@@H]2[C@H]3OC(=O)[C@@H](C)[C@@H]3CCC(=C)[C@@H]2C[C@@H]1O
[3]
  growth inhibition (GI): Active
[4]
  growth inhibition (GI): Active
[11]
  growth inhibition (GI): Active
[12]
  growth inhibition (GI): Active

## C=C1[C@H]2C[C@H]2[C@]2(C)[C@@H]3O[C@@]34OC(=O)C(COC(C)=O)=C4C[C@@H]12
[3]
  growth inhibition (GI): Active
[4]
  growth inhibition (GI): Active
[13]
  growth inhibition (GI): inactive
[14]
  growth inhibition (GI): inactive

## C=C1[C@H]2C[C@H]2[C@]2(C)C=C3OC(=O)C(CO)=C3C[C@@H]12
[3]
  growth inhibition (GI): Active
[4]
  growth inhibition (GI): Active
[15]
  growth inhibition (GI): 50%
[16]
  growth inhibition (GI): 50%

## C=C1[C@@H]2[C@H]3OC(=O)C(=C)[C@@H]3CCC(=C)[C@@H]2C[C@@H]1O [ZALUZANIN C]
[3]
  growth inhibition (GI): Active
[11]; ATCC 32264, 48 h
  MIC: 125 µg/mL (≈ 507 µM)
[12]
  growth inhibition (GI): Active
